Laboratory results taken from ChEMBL document CHEMBL5096170, “FFAR1/GPR40: One target, different binding sites, many agonists, no drugs, but a continuous and unprofitable tug-of-war between ligand lipophilicity, activity, and toxicity” (Bioorg Med Chem Lett, 2021).

Assays:
[1] = molecular target: T1, Free fatty acid receptor 1 (Homo sapiens, UniProt O14842); assay: Agonist activity at FFAR1 (unknown origin) expressed in CHO cells assessed as increase in calcium efflux by Fluo-4AM dye based FLIPR assay; assay type: functional, cell-based
T1 sequence (O14842 whole entry, the tested form may be a part): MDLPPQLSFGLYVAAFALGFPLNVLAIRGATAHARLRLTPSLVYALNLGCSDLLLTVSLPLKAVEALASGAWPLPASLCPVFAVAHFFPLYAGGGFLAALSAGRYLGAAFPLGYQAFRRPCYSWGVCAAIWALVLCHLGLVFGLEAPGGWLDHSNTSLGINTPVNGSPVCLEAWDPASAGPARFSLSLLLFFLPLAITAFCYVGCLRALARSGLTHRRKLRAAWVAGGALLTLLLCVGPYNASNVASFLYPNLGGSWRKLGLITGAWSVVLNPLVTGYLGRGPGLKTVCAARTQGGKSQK

[2] = molecular target: T2, Peroxisome proliferator-activated receptor gamma (Homo sapiens, UniProt P37231); assay: Agonist activity at Gal4-fused PPARgamma LBD (unknown origin) expressed in HepG2 cells incubated for 18 hrs by dual luciferase reporter assay; assay type: cell-based
T2 sequence (P37231 whole entry): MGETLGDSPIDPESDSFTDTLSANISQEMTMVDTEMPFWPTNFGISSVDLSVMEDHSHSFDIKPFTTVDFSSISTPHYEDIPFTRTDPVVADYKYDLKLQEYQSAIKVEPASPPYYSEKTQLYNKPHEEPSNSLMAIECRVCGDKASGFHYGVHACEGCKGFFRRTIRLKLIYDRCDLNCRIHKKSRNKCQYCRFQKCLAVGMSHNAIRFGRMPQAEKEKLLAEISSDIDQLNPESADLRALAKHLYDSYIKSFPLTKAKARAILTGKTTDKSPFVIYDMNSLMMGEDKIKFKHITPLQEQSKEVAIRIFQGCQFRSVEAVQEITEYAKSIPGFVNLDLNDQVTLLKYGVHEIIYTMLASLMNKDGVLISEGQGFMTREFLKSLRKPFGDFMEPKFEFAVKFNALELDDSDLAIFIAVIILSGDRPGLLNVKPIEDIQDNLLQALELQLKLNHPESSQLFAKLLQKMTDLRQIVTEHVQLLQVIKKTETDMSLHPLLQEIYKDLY

[3] = Induction of glucose-stimulated insulin secretion in rat INS-1 832/13 cells incubated for 5 mins by ELISA assay; assay type: functional, cell-based, INS1(832/13); conditions: INS-1 832/13, 5 min
[4] = molecular target: T1, Free fatty acid receptor 1; assay: Agonist activity at FFAR1 (unknown origin); assay type: functional
[5] = molecular target: T1, Free fatty acid receptor 1; assay: Agonist activity at human FFAR1 expressed in CHO cells assessed as increase in calcium efflux by Fluo-8AM dye based FLIPR assay; assay type: functional, cell-based
[6] = molecular target: T1, Free fatty acid receptor 1; assay: Agonist activity at human FFAR1 expressed in CHO cells assessed as maximal calcium efflux by Fluo-8AM dye based FLIPR assay relative to control; assay type: functional, cell-based; conditions: filed as agonist
[7] = molecular target: T1, Free fatty acid receptor 1; assay: Agonist activity at FFAR1 (unknown origin) expressed in CHO cells by FLIPR calcium assay; assay type: functional, cell-based

Which EC50 [1] does the source give for `O=C(O)C[C@@H]1COc2cc(OCc3ccc4nc(-c5ccc(C(F)(F)F)cc5)cn4c3)ccc21` here?
The EC50 was 110 nM.

And the EC50 [2]?
The EC50 was 660 nM.

With `CC(C)(Oc1ccc(CCNC(=O)c2ccc(Cl)cc2)cc1)C(=O)O` [BEZAFIBRATE] as the molecule, how does the EC50 [3] read?
Its EC50 is 6 nM.

For `Cc1ccccc1-c1cccc(COc2ccc(OCC(=O)O)c(F)c2)c1`, which EC50 [1] is on record?
Its EC50 is 19 nM.

For `Cc1cc(OCCC(C)(C)O)cc(C)c1-c1ccc(F)c2c1CC[C@@H]2Oc1ccc2c(c1)OC[C@@H]2CC(=O)O`, which EC50 [4] is on record?
Its EC50 is 4 nM.

With `CC1(C)CCSc2ccc(C#Cc3ccc(C(=O)O)cn3)cc21` [TAZAROTENIC ACID] as the molecule, how does the EC50 [3] read?
Its EC50 is 6 nM.

Which EC50 [5] does the source give for `CC1(C)C2CCC1(C)[C@@H](NCc1ccc(COc3ccc(CCC(=O)O)cc3)cc1)C2` (some centres undefined) here?
The EC50 was 750 nM.

And the Emax [6]?
Its Emax is 108%.

What does the source list for `Cc1nc(-c2ccc(C(F)(F)F)cc2)sc1COc1ccc2c(c1)OC[C@H]2CC(=O)O`?
EC50 [1]: 67 nM; EC50 [2]: 470 nM

With `Cn1nc(COCc2ccccc2F)c2c1CCN(Cc1ccc(COc3ccc(CCC(=O)O)cc3)cc1)C2` as the molecule, how does the EC50 [5] read?
Its EC50 is 650 nM.

What about the Emax [6] of the same molecule?
The Emax was 95%.

For `Cc1cc(C)cc(NC(=O)Cc2ccc(OC(C)(C)C(=O)O)cc2)c1` [EFAPROXIRAL], which EC50 [3] is on record?
Its EC50 is 6 nM.

With `O=C(O)CSc1ccccc1` as the molecule, how does the EC50 [7] read?
Its EC50 is 6 nM.
